Values quoted from earlier work, collected in patent US11160745B2, “Methods and compositions for topical delivery for skin care” (priority 2014, dated 2021).
Where two headings read alike, the source gives them in different places.

Legend:
ternary SNARE complex = target: T1, ternary SNARE complex (Homo sapiens, UniProt Q16623); details: immunoblot with anti-syntaxin mAb
T1 construct: Chromaffin cells were prepared and further separated from erythrocytes and other impurities by centrifugation gradient; endogenous in cells; complex immunoprecipitated

chromaffin cells = details: tritiated noradrenaline/adrenaline, liquid scintillation counting
wrinkles around the eyes = details: for Reduction of the depth of wrinkles: independent study; for Decrease in severity of wrinkles around the eyes: ONV emulsion containing 10% Argireline solution, twice a day

T1 sequence (Q16623 whole entry, one chain of several): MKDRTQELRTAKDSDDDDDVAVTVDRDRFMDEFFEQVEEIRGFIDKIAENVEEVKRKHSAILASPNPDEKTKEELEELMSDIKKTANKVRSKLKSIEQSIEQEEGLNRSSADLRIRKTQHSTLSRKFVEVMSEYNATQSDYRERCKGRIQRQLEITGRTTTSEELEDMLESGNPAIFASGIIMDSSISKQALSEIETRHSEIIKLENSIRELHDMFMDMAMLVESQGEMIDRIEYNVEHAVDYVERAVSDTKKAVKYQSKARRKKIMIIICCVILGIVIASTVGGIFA

Substance: Ac-EEMQRR-NH2 [Argireline, (6S,9S,12S,15S,18S,21 S)-21-Acetamido-1-amino-12-(3-amino-3-oxopropyl)-6-carbamoyl-18-(2-carboxyethyl)-9-(3-guanidinopropyl)-1-imino-15-(2-(methylthio)ethyl)-8,11,14,17,20-pentaoxo-2,7,10,13,16,19-hexaazatetracosan-24-oic acid]
- SNARE complex formation (ternary SNARE complex): modulates SNARE complex formation at concentrations in the mM range
- Release of catecholamines (adrenaline and noradrenaline) (chromaffin cells): significant modulation of both neurotransmitters at nM concentrations
- Reduction of the depth of wrinkles (wrinkles around the eyes; after 15 days of treatment): up to 17%
- Decrease in severity of wrinkles around the eyes (wrinkles around the eyes; after 15 days): up to 17%
- Decrease in severity of wrinkles around the eyes (wrinkles around the eyes; after 30 days): up to 27%
- Reduction of the depth of wrinkles (wrinkles around the eyes; following 30 days of treatment): up to 27%
